Reference: patent US20250381242A1 (INVAIO SCIENCES, INC., priority 2024, published 2025)
Residues, ends and D or L forms follow the SMILES beside them. No end group written: not given here.

Assays:
E. amylovora = conditions: 24 h, 10 μM
A. tumefaciens = conditions: 24 h, 10 μM
L. crescens = conditions: 10 μM
X. citri = assay: Bacterial growth inhibition by OD600 absorbance, X. citri; assay type: cell-based, X. citri subsp. citri (ATCC 49118); conditions: peptide 10 μM, 24 hours at 30° C., OD 600 nm
Protocol: (§1) Antimicrobial activity of antimicrobial peptides was tested against the agricultural microbial pests A. tumefaciens, E. amylovora, E. coli, and X. citri, using OD absorbance measurement to detect bacterial growth.
(§2) Antimicrobial peptides were synthesized using solid phase peptide synthesis method and resuspended in 10% DMSO to a 1 mM stock concentration. The stock solution was aliquoted in cryovials and stored at −80° C.
(§3) An aliquot of 198 μl of the bacterial culture was added to each well in a 96-well plate and 2 μl of a 1 mM peptide stock solution was added to each well, for a final treatment concentration of 10 μM of a given peptide. Media only wells were included to control for contamination. The positive controls were 50 μg/ml oxytetracycline hydrochloride and 500 μg/ml streptomycin sulfate. A 0.1% DMSO treatment was included as a negative control.
(§4) An initial absorbance reading of the bacterial suspensions was taken at 600 nm. Then, the bacteria were grown in an incubator at 30° C. (A. tumefaciens, E. amylovora, X. citri) or 37° C. (E. coli) for 24 hours, after which the final absorbance reading was measured. Using the initial and final absorbance reading compared to negative and positive controls, the percent inhibition of the bacterial strain by given peptide treatment was determined.

E. coli = assay: Bacterial growth inhibition by OD600 absorbance, E. coli; assay type: cell-based, E. coli (DH5-alpha); conditions: peptide 10 μM, 24 hours at 37° C., OD 600 nm
Protocol: as §1, §2, §3, §4

Molecule	growth inhibition, E. amylovora (E. amylovora)	growth inhibition, A. tumefaciens (A. tumefaciens)	growth inhibition, L. crescens (L. crescens)	growth inhibition, X. citri (X. citri)	growth inhibition, E. coli (E. coli)
CSCC[C@H](NC(=O)CNC(=O)[C@H](C)NC(=O)[C@H](CCC(=O)O)NC(=O)[C@H](CCCCN)NC(=O)[C@H](C)NC(=O)[C@@H](NC(=O)CNC(=O)[C@H](CCCCN)NC(=O)[C@H](CC(C)C)NC(=O)[C@H](CC(C)C)NC(=O)[C@H](CC(=O)O)NC(=O)CNC(=O)[C@H](Cc1ccccc1)NC(=O)[C@H](C)NC(=O)CN)C(C)C)C(=O)N[C@@H](CCCCN)C(=O)N[C@@H](CC(C)C)C(=O)N[C@@H](CC(C)C)C(=O)N[C@@H](CC(N)=O)C(=O)N[C@@H](CCSC)C(=O)N[C@@H](C)C(=O)N[C@@H](CCC(N)=O)C(=O)N[C@@H](CS)C(=O)N[C@@H](CCCCN)C(=O)N[C@@H](CC(C)C)C(=O)N[C@@H](CO)C(=O)NCC(=O)N[C@@H](CCCCN)C(=O)N[C@@H](CS)C(=O)O [compound 19] (H-GAFGDLLKGVAKEAGMKLLNMAQCKLSGKC-OH; N-terminus and C-terminus assumed)	<90%	<90%	<90%	–	–
AFWKKFFKKFFKSAKKFG [compound 67]	100.00%	99.57%	<90%	100.00%	100.00%
AIWKKIIKKIIKSAKKIG [compound 78]	100.00%	100.00%	<90%	100.00%	<90%
ALWKTLLKHVGKAAGKAALNAVTDMVNQ [compound 25]	100.00%	100.00%	<90%	100.00%	100.00%
AWKETIRKYLKNEIKKKWRKAVIAW [compound 14]	100.00%	100.00%	<90%	100.00%	100.00%
FFRNLWKGAKAAFRAGHAAWRA [compound 41]	100.00%	100.00%	<90%	100.00%	<90%
FKRLEKLFKKIWNWK [compound 79]	100.00%	100.00%	<90%	100.00%	<90%
FQRYFHRYARFLAKIWKG [compound 62]	100.00%	100.00%	<90%	100.00%	<90%
FRIRVRVKWKLFKKI [compound 81]	100.00%	100.00%	<90%	<90%	100.00%
GANALKKYFTILKKFFKLAW [compound 61]	<90%	<90%	<90%	<90%	100.00%
GFGTILKALAKIAGKVVKKLATKPGATYMLKENLK [compound 7]	100.00%	100.00%	<90%	100.00%	100.00%
GIGKFLHSAKKFGKAFVGEIMNSKKKKKKKKKK [compound 5]	<90%	98.68%	<90%	100.00%	<90%
GIGKLFLHAAKKFAKAFVAEKMNS [compound 36]	100.00%	100.00%	<90%	100.00%	<90%
GIKDLLKGAAKALVKTVLK [compound 87]	<90%	98.43%	<90%	<90%	<90%
GIKIAKKAITIAKKIAKIYW [compound 69]	100.00%	100.00%	<90%	100.00%	93.16%
GIKKFLKSAKKFVKAFK [compound 86]	100.00%	98.88%	<90%	<90%	<90%
GILKTIKSIASKLKRKAK [compound 85]	99.65%	<90%	<90%	<90%	<90%
GILKTIKSIASKVANTVQKLKRKAKNAVA [compound 20]	100.00%	100.00%	<90%	100.00%	99.03%

Molecule	growth inhibition, E. amylovora (E. amylovora)	growth inhibition, A. tumefaciens (A. tumefaciens)	growth inhibition, L. crescens (L. crescens)	growth inhibition, X. citri (X. citri)	growth inhibition, E. coli (E. coli)
GILSKLGKALKKAAKHAAKA [compound 82]	100.00%	<90%	<90%	<90%	<90%
GIMSSLMKKLKKIIAK [compound 99]	100.00%	98.76%	<90%	<90%	<90%
GKLTKDKLKRGAKKALNVASKVAPIVAAGASIAR [compound 10]	100.00%	98.37%	<90%	100.00%	<90%
GLLKKIAKKAKKALKKLGY [compound 74]	100.00%	100.00%	<90%	100.00%	<90%
GLLKKWLKKWKEFKRIVGY [compound 57]	100.00%	99.99%	<90%	100.00%	100.00%
GLLSNVAGLLKQFAKGGVNAVLNPK [compound 45]	99.64%	<90%	<90%	100.00%	<90%
GLWSKIKKAAKTAGKAALGFVNKMV [compound 35]	100.00%	100.00%	<90%	100.00%	100.00%
GLWSKIKTAGKSVAKAAAKAAVKAVTNAV [compound 28]	100.00%	100.00%	<90%	100.00%	100.00%
GWWRRTVDKVRNAGRKVAGFASKACGALGH [SEQ ID NO: 13]	greater than 90%	greater than 90%	greater than 90%	–	–
IWSFLIKAATKLLPSLFGGGKKDS [SEQ ID NO: 39]	–	–	greater than 90%	–	–
KFWSLLKKALRLWANVL [SEQ ID NO: 76]	greater than 90%	greater than 90%	greater than 90%	–	–
KKFLHSAKKWLKAFVKLFKNW [SEQ ID NO: 33]	–	greater than 90%	greater than 90%	–	–
KWKSFIKNLEKVLKKGPILANLVSIV [SEQ ID NO: 23]	greater than 90%	greater than 90%	greater than 90%	–	–
VRLRIRVRVIRK [compound 118]	100.00%	100.00%	–	100.00%	100.00%
VRVKVRVKVRVK [compound 131]	100.00%	<90%	–	<90%	99.54%
WKIKWKIKWKIK [compound 105]	<90%	<90%	–	<90%	<90%
YSLQMGATAIKQVKKLFKKKGG [compound 56]	<90%	<90%	–	<90%	<90%
